For one assay, the target named is T1, Tissue factor (Homo sapiens, UniProt P13726). The experiment in a line: ChEBML_1654816. On the procedure:
(§1) Inhibition of LPS-induced tissue factor procoagulant activity in human THP1 cells preincubated for 1 hr followed by LPS addition measured after 5 hrs using factor 10a chromogenic substrate in presence of prothrombin complex
T1 sequence (P13726 whole entry): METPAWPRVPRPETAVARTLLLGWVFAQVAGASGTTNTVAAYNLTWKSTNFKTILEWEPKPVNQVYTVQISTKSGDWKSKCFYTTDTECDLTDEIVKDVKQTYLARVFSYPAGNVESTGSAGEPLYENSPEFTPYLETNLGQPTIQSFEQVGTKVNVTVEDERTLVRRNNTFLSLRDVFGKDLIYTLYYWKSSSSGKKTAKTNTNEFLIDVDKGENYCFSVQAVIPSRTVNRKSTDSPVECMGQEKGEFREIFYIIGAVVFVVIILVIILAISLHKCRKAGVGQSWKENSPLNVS
The molecule `C=C(C)[C@@H]1CC[C@]2(C(=O)O[C@@H]3O[C@H](CO)[C@@H](O)[C@H](O)[C@H]3O)CC[C@]3(C)C(CC[C@@H]4[C@@]5(C)CC[C@H](O[C@@H]6O[C@H](CO)[C@@H](O)[C@H](O)[C@H]6O)C(C)(C)[C@@H]5CC[C@]43C)[C@H]12` (some centres undefined) showed an IC50 of 0.64 nM.
The molecule `CC1(C)CC[C@]2(C(=O)O)CC[C@]3(C)C(=CC[C@@H]4[C@@]5(C)CC[C@H](O[C@@H]6O[C@H](CO)[C@@H](O)[C@H](O)[C@H]6O)C(C)(C)[C@@H]5CC[C@]43C)[C@@H]2C1` [Vitalboside A] registered an IC50 of 0.095 nM.
Same read-out and setting: next, `CC1(C)CC[C@]2(C(=O)O[C@@H]3O[C@H](CO)[C@@H](O)[C@H](O)[C@H]3O)CC[C@]3(C)C(=CC[C@@H]4[C@@]5(C)CC[C@H](O)[C@@](C)(CO)[C@@H]5CC[C@]43C)[C@@H]2C1` [CHEBI:67947]: 0.28 nM.
On the same count and under the same terms, as for `CC1(C)CC[C@]2(C(=O)O[C@@H]3O[C@H](CO)[C@@H](O)[C@H](O)[C@H]3O)[C@H](O)C[C@]3(C)C(=CC[C@@H]4[C@@]5(C)CC[C@H](O)[C@](C)(CO)[C@@H]5CC[C@]43C)[C@@H]2C1`, the figure is 0.801 nM; as for `CC1(C)CC[C@]2(C(=O)O)[C@H](O)C[C@]3(C)C(=CC[C@@H]4[C@@]5(C)CC[C@H](O)C(C)(C)[C@@H]5CC[C@]43C)[C@@H]2C1` [CHEBI:4747], 0.054 nM.
Consider `COc1cc(/C=C/C(=O)CC(=O)/C=C/c2ccc(O)c(OC)c2)ccc1O` [CHEBI:3962], for which the midpoint of inhibition, the IC50, lay at 13 nM.

In another assay the target is T1, Tissue factor. The assay is described as §1.
On to `CC1(C)CC[C@]2(C(=O)O)CC[C@]3(C)C(=CC[C@@H]4[C@@]5(C)CC[C@H](O)[C@](C)(CO)[C@@H]5CC[C@]43C)[C@@H]2C1`, for which the 50% inhibitory concentration (IC50) was found to be 1.3 nM.
For `CC1(C)CC[C@]2(C(=O)O)CC[C@]3(C)C(=CC[C@@H]4[C@@]5(C)CCC(=O)C(C)(C)[C@@H]5CC[C@]43C)[C@@H]2C1` [Oleanonic Acid], the 50% inhibitory concentration (IC50) was 0.221 nM.
For the molecule `CC1(C)CC[C@]2(C(=O)O[C@@H]3O[C@H](CO)[C@@H](O)[C@H](O)[C@H]3O)[C@H](O)C[C@]3(C)C(=CC[C@@H]4[C@@]5(C)CC[C@H](O)C(C)(C)[C@@H]5CC[C@]43C)[C@@H]2C1`, the IC50 came to 11 nM.
`C=C(C)[C@@H]1CC[C@]2(C(=O)O[C@@H]3O[C@H](CO)[C@@H](O)[C@H](O)[C@H]3O)CC[C@]3(C)C(CC[C@@H]4[C@@]5(C)CC[C@H](O)[C@@](C)(CO)[C@@H]5CC[C@]43C)[C@H]12` (some centres undefined): the half-inhibitory concentration (IC50) was 0.028 nM.
On the same count and under the same terms, next, `CC1(C)CC[C@]2(C(=O)O[C@@H]3O[C@H](CO)[C@@H](O)[C@H](O)[C@H]3O)CC[C@]3(C)C(=CC[C@@H]4[C@@]5(C)CC[C@H](O)C(C)(C)[C@@H]5CC[C@]43C)[C@@H]2C1` [CHEBI:67985]: 0.035 nM; `CC1(C)CC[C@]2(C(=O)OCc3ccccc3)CC[C@]3(C)C(=CC[C@@H]4[C@@]5(C)CC[C@H](O)C(C)(C)[C@@H]5CC[C@]43C)[C@@H]2C1` [benzyl (4aS,6aS,6bR,8aR,10S,12aR,12bR,14bS)-10-hydroxy-2,2,6a,6b,9,9,12a-heptamethyl-1,3,4,5,6,7,8,8a,10,11,12,12b,13,14b-tetradecahydropicene-4a-carboxylate (Compound 4)]: 4.7 nM; `CC1(C)CC[C@]2(C(=O)O[C@@H]3O[C@H](CO)[C@@H](O)[C@H](O)[C@H]3O)[C@H](O)C[C@]3(C)C(=CC[C@@H]4[C@@]5(C)CC[C@H](O[C@@H]6O[C@H](CO)[C@@H](O)[C@H](O)[C@H]6O)C(C)(C)[C@@H]5CC[C@]43C)[C@@H]2C1`: 9.6 nM.
Same read-out and setting: as for `CC1(C)CC[C@]2(C(=O)O[C@@H]3O[C@H](CO)[C@@H](O)[C@H](O)[C@H]3O)CC[C@]3(C)C(=CC[C@@H]4[C@@]5(C)CC[C@H](O)[C@](C)(CO)[C@@H]5CC[C@]43C)[C@@H]2C1`, the figure is 6.5 nM; as for `CC1(C)CC[C@]2(C(=O)O[C@@H]3O[C@H](CO)[C@@H](O)[C@H](O)[C@H]3O)CC[C@]3(C)C(=CC[C@@H]4[C@@]5(C)CC[C@H](O[C@@H]6O[C@H](CO)[C@@H](O)[C@H](O)[C@H]6O)C(C)(C)[C@@H]5CC[C@]43C)[C@@H]2C1`, 16 nM.
On the same count and under the same terms, next, `C=C(C)[C@@H]1CC[C@]2(C(=O)O)CC[C@]3(C)C(CC[C@@H]4[C@@]5(C)CC[C@H](O)[C@@](C)(CO)[C@@H]5CC[C@]43C)[C@H]12` (some centres undefined): 0.221 nM; `CC1(C)CC[C@]2(C(=O)O)CC[C@]3(C)C(=CC[C@@H]4[C@@]5(C)CC[C@H](O)[C@@](C)(CO)[C@@H]5CC[C@]43C)[C@@H]2C1` [4-Epi-Hederagenin]: 0.221 nM; `C=C(C)[C@@H]1CC[C@]2(C(=O)O[C@@H]3O[C@H](CO)[C@@H](O)[C@H](O)[C@H]3O)CC[C@]3(C)C(CC[C@@H]4[C@@]5(C)CC[C@H](O)C(C)(C)[C@@H]5CC[C@]43C)[C@H]12` (some centres undefined): 0.078 nM.
As for `CC1(C)CC[C@]2(C(=O)O)CC[C@]3(C)C(=CC[C@@H]4[C@@]5(C)CC[C@H](O)C(C)(C)[C@@H]5CC[C@]43C)[C@@H]2C1` [Oleanolic acid (OA)(Compound 1)], the IC50 stood at 5 nM.

As a reminder, the IC50 is the concentration that gives 50% inhibition.

The record behind these values is BindingDB's records for doi:10.1016/j.bmcl.2016.12.066 (China Pharmaceutical University, 2017).
